Test results: paper PMC6259751, “Investigating Spectrum of Biological Activity of 4- and 5-Chloro-2-hydroxy-N-[2-(arylamino)-1-alkyl-2-oxoethyl]benzamides” (Molecules, 2011)
Converted amounts (≈) assume the structure as drawn. “And” between values parts separate entries of the source, which are not always exact repeats. Equal values may be shown once. Read-outs that look alike come from different tables or passages of the source.

Legend:
[1] = tested on: Staphylococcus aureus CCM 4516/08; test: In vitro antibacterial susceptibility testing (broth microdilution); settings: read-out: MIC SA
[2] = tested on: Candida tropicalis 156; test: In vitro antifungal susceptibility testing (broth microdilution); type: cell-based; settings: M27-A2 for yeasts, IC80 value
[3] = Lipophilicity determination by RP-HPLC (capacity factor k / log k); type: physicochemical; settings: C18 column, MeOH 70% / H2O 30%, isocratic
Description: Hydrophobicities (log P/Clog P) of compounds 8 and 9 were calculated using two commercially available programs (ChemOffice Ultra 10.0 and ACD/LogP) and measured by means of RP-HPLC determination of capacity factors k with subsequent calculation of log k. The procedure was performed under isocratic conditions with methanol as an organic modifier in the mobile phase using an end-capped non-polar C18 stationary RP column. The results are shown in Table 1 and illustrated in Figure 1.
A Waters Alliance 2695 XE HPLC separation module and a Waters Photodiode Array Detector 2996 (Waters Corp., Milford, MA, USA) were used. A Symmetry® C18 5 μm, 4.6 × 250 mm, Part No. WAT054275 (Waters Corp., Milford, MA, USA) chromatographic column was used. The HPLC separation process was monitored by Empower™ 2 Chromatography Data Software, Waters 2009 (Waters Corp., Milford, MA, USA). A mixture of MeOH p.a. (70%) and H2O-HPLC – Mili-Q Grade (30%) was used as a mobile phase. The total flow of the column was 1.0 mL/min, injection volume, 30 μL, column temperature, 30 °C and sample temperature, 10 °C. The detection wavelength of 210 nm was chosen. The KI methanolic solution was used for the dead time (tD) determination. Retention times (tR) were measured in minutes. The capacity factors k were calculated using the Empower™ 2 Chromatography Data Software according to formula k = (tR - tD)/tD, where tR is the retention time of the solute, whereas tD denotes the dead time obtained using an unretained analyte. Log k, calculated from the capacity factor k, is used as the lipophilicity index converted to log P scale.

[4] = tested on: photosynthetic electron transport (PET) in spinach chloroplasts; test: Inhibition of photosynthetic electron transport (PET) in spinach chloroplasts; type: biochemical, Spinacia oleracea L.; settings: DCPIP photoreduction
Description: Chloroplasts were prepared from spinach (Spinacia oleracea L.) according to Masarovicova and Kralova. The inhibition of photosynthetic electron transport (PET) in spinach chloroplasts was determined spectrophotometrically (Genesys 6, Thermo Scientific, USA), using an artificial electron acceptor 2,6-dichlorophenol-indophenol (DCIPP) according to Kralova et al., and the rate of photosynthetic electron transport was monitored as a photoreduction of DCPIP. The measurements were carried out in phosphate buffer (0.02 mol/L, pH 7.2) containing sucrose (0.4 mol/L), MgCl2 (0.005 mol/L) and NaCl (0.015 mol/L). The chlorophyll content was 30 mg/L in these experiments and the samples were irradiated (~100 W/m^2) from 10 cm distance with a halogen lamp (250 W) using a 4 cm water filter to prevent warming of the samples. The studied compounds were dissolved in DMSO due to their limited water solubility. […] The inhibitory efficiency of the studied compounds was expressed by IC50 values, i.e. by molar concentration of the compounds causing 50% decrease in the oxygen evolution rate relative to the untreated control.

[5] = tested on: Enterococcus sp. J 14365/08; test: In vitro antibacterial susceptibility testing (broth microdilution); settings: read-out: MIC EF
[6] = tested on: methicilin resistant Staphylococcus aureus H 5996/08; test: as above; settings: MRSA, read-out: MIC MRSA
[7] = tested on: Trichophyton mentagrophytes 445; test: In vitro antifungal susceptibility testing (broth microdilution); type: cell-based; settings: M38-A for moulds, IC50 value, read-out: MIC TM
[8] = tested on: Staphylococcus epidermidis H 6966/08; test: In vitro antibacterial susceptibility testing (broth microdilution); settings: read-out: MIC SE
[9] = tested on: Mycobacterium avium MA CNCTC My 330/88; test: In vitro antimycobacterial evaluation; type: cell-based; settings: IC90 value
[10] = tested on: Mycobacterium tuberculosis MTB CNCTC My 331/88; test: In vitro antimycobacterial evaluation; type: cell-based; settings: IC90 value
[11] = tested on: Mycobacterium kansasii MK CNCTC My 235/80; test: In vitro antimycobacterial evaluation; type: cell-based; settings: IC90 value

| SMILES | MIC ([1]; CCM4516, 24 h) | MIC ([1]; CCM4516, 48 h) | MIC ([2]; 24h) | MIC ([2]; 48h) | log k [3] | IC50 [4] | MIC ([5]; SP.J14365/08, 24 h) | MIC ([5]; SP.J14365/08, 48 h) | MIC ([6]; 24 h) | MIC ([6]; 48 h) | MIC ([7]; 72h) | MIC ([7]; 120h) | MIC ([8]; H6966/08, 24 h) | MIC ([8]; H6966/08, 48 h) | MIC ([9]; 14h) | MIC ([9]; 21h) | MIC ([10]; 14h) | MIC ([10]; 21h) | MIC ([11]; 14h) | MIC ([11]; 21h) |
| --- | --- | --- | --- | --- | --- | --- | --- | --- | --- | --- | --- | --- | --- | --- | --- | --- | --- | --- | --- | --- |
| CC(C)[C@@H](NC(=O)c1cc(Cl)ccc1O)C(=O)Nc1cccc(Cl)c1 [8e] | 15.6 µM (≈ 5.96 µg/mL) | 15.6 µM (≈ 5.96 µg/mL) | 15.6 µM (≈ 5.96 µg/mL) | 62.5 µM (≈ 23.8 µg/mL) | 0.61 and 0.6114 | 20.4 µM | 62.5 µM (≈ 23.8 µg/mL) | 250 µM (≈ 95.3 µg/mL) | 31.2 µM (≈ 11.9 µg/mL) | 31.2 µM (≈ 11.9 µg/mL) | 125 µM (≈ 47.7 µg/mL) | 125 µM (≈ 47.7 µg/mL) | 31.2 µM (≈ 11.9 µg/mL) | 31.2 µM (≈ 11.9 µg/mL) | 62.5 µM (≈ 23.8 µg/mL) | 125 µM (≈ 47.7 µg/mL) | 32 µM (≈ 12.2 µg/mL) | 62.5 µM (≈ 23.8 µg/mL) | 62.5 µM (≈ 23.8 µg/mL) | 125 µM (≈ 47.7 µg/mL) |
| Cc1ccc(NC(=O)[C@@H](NC(=O)c2ccc(Cl)cc2O)C(C)C)cc1 [9i] | – | – | – | – | 0.5902 | 37.3 µM | – | – | – | – | – | – | – | – | – | – | – | – | – | – |
| CC(C)[C@H](NC(=O)c1cc(Cl)ccc1O)C(=O)Nc1cccc(Cl)c1 [8d] | > 125 µM | > 125 µM | > 125 µM | > 125 µM | 0.6124 | 13.8 µM | > 125 µM | > 125 µM | > 125 µM | > 125 µM | > 125 µM | > 125 µM | > 125 µM | > 125 µM | 125 µM (≈ 47.7 µg/mL) | 125 µM (≈ 47.7 µg/mL) | 32 µM (≈ 12.2 µg/mL) | 62.5 µM (≈ 23.8 µg/mL) | 62.5 µM (≈ 23.8 µg/mL) | 125 µM (≈ 47.7 µg/mL) |
| CC(C)[C@H](NC(=O)c1ccc(Cl)cc1O)C(=O)Nc1ccc(C(F)(F)F)cc1 [9h] | – | – | – | – | 0.7892 | 14.2 µM | – | – | – | – | – | – | – | – | – | – | – | – | – | – |
| COc1ccc(NC(=O)[C@@H](NC(=O)c2ccc(Cl)cc2O)C(C)C)cc1 [9j] | – | – | – | – | 0.3623 | 35.7 µM | – | – | – | – | – | – | – | – | – | – | – | – | – | – |
| CC(C)[C@@H](NC(=O)c1ccc(Cl)cc1O)C(=O)Nc1ccc(Br)cc1 [9g] | – | – | – | – | 0.7353 | 24 µM | – | – | – | – | – | – | – | – | – | – | – | – | – | – |
| C[C@H](NC(=O)c1cc(Cl)ccc1O)C(=O)Nc1ccc(Cl)c(Cl)c1 [8n] | > 500 µM | > 500 µM | > 125 µM | > 125 µM | 0.6698 | – | > 500 µM | > 500 µM | > 500 µM | > 500 µM | > 125 µM | > 125 µM | > 500 µM | > 500 µM | 32 µM (≈ 12.4 µg/mL) | 62.5 µM (≈ 24.2 µg/mL) | 32 µM (≈ 12.4 µg/mL) | 32 µM (≈ 12.4 µg/mL) | 62.5 µM (≈ 24.2 µg/mL) | 500 µM (≈ 194 µg/mL) |
| O=C(N[C@@H](Cc1ccccc1)C(=O)Nc1ccc(Cl)cc1)c1ccc(Cl)cc1O [9e] | > 250 µM | > 250 µM | 125 µM (≈ 53.7 µg/mL) | 125 µM (≈ 53.7 µg/mL) | 0.7540 | – | > 500 µM | > 500 µM | > 250 µM | > 250 µM | 125 µM (≈ 53.7 µg/mL) | 125 µM (≈ 53.7 µg/mL) | > 250 µM | > 250 µM | 32 µM (≈ 13.7 µg/mL) | 62.5 µM (≈ 26.8 µg/mL) | 32 µM (≈ 13.7 µg/mL) | 32 µM (≈ 13.7 µg/mL) | 32 µM (≈ 13.7 µg/mL) | 62.5 µM (≈ 26.8 µg/mL) |
| O=C(N[C@H](Cc1ccccc1)C(=O)Nc1ccc(Br)cc1)c1cc(Cl)ccc1O [8v] | 3.9 µM (≈ 1.85 µg/mL) | 15.6 µM (≈ 7.4 µg/mL) | 500 µM (≈ 237 µg/mL) | > 500 µM | 0.7673 | – | 62.5 µM (≈ 29.6 µg/mL) | 62.5 µM (≈ 29.6 µg/mL) | 7.81 µM (≈ 3.7 µg/mL) | 15.6 µM (≈ 7.4 µg/mL) | 500 µM (≈ 237 µg/mL) | > 500 µM | 62.5 µM (≈ 29.6 µg/mL) | 125 µM (≈ 59.2 µg/mL) | 250 µM (≈ 118 µg/mL) | 250 µM (≈ 118 µg/mL) | 32 µM (≈ 15.2 µg/mL) | 32 µM (≈ 15.2 µg/mL) | 32 µM (≈ 15.2 µg/mL) | 32 µM (≈ 15.2 µg/mL) |
| CC(C)[C@@H](NC(=O)c1ccc(Cl)cc1O)C(=O)Nc1ccc(Cl)cc1 [9d] | > 500 µM | > 500 µM | > 125 µM | > 125 µM | 0.6832 | – | > 500 µM | > 500 µM | > 500 µM | > 500 µM | 7.81 µM (≈ 2.98 µg/mL) | 7.81 µM (≈ 2.98 µg/mL) | > 500 µM | > 500 µM | 62.5 µM (≈ 23.8 µg/mL) | 62.5 µM (≈ 23.8 µg/mL) | 62.5 µM (≈ 23.8 µg/mL) | 62.5 µM (≈ 23.8 µg/mL) | 62.5 µM (≈ 23.8 µg/mL) | 62.5 µM (≈ 23.8 µg/mL) |
